According to US20210040151A1, “MICROMOLECULE POLYPEPTIDE AND USE THEREOF” (NANFANG HOSPITAL OF SOUTHERN MEDICAL UNIVERSITY, priority 2019, published 2021):
“Also recorded” adds a separate entry of the source.

How the values were obtained:
UUO mice = assay: Kidney fibrosis in UUO (unilateral ureter ligation) mouse model: sirus scarlet staining, fibronectin immunostaining, western blot; type: in vivo, BALB/C mice
Experimental: (§1) BALB/C mice, male and female, a weight ranging from 20 g to 22 g, and a SPF grade.
(§2) The animals were weighed and numbered. 18 healthy mice with a weight ranging from 20 g to 22 g were selected and randomly divided into 3 groups, with 6 mice in each group, including a sham operation group, a model group and an administration group.
(§3) 1) Sham operation group: at a room temperature, after mice were anaesthetized with 3% pentobarbital sodium at 1 ml/kg body weight, a left abdomen part of 2 cm to 3 cm was selected as an incision; and skin, a subcutaneous layer, a muscular layer and a peritoneum were cut layer by layer after local disinfection, and then were sutured layer by layer immediately after finding a left ureter. After local disinfection, the mice were verified and marked, and then placed in a corresponding mouse cage.
(§4) 2) Model control group: anesthetization and disinfection were performed same as the sham operation group. Skin, a subcutaneous layer, a muscular layer and a peritoneum were cut layer by layer, and then were sutured layer by layer after finding a left ureter and performing a ligation at an upper ⅓ segment of the ureter. After local disinfection, the mice were verified and marked, and then placed in a corresponding mouse cage.
as §4, with “3) Administration” for “2) Model control”, “as” for “as the”
KP-6T or KP-6 water soluble powder was diluted with sterile 0.01 Mol glacial acetic acid solution to a storage concentration of 10 mg/ml. The mice of each experimental group were raised in different cages. The sham operation group was only observed. The model control group was only given 0.01 Mol glacial acetic acid solution by tail vein injection. The administration group was given glacial acetic acid solution containing KP-6T or KP-6 of 0.5 mg/kg of body weight by tail vein injection on the 1st or 5th day after UUO operation for 6 consecutive days. The mice in each group were euthanized after 7 days or 11 days of raising, left kidneys were taken, and then tissues were respectively fixed with 10% neutral formaldehyde and frozen with liquid nitrogen. The formaldehyde-fixed tissues were dehydrated, embedded, sliced and flaked, and then subjected to sirus scarlet staining and fibronectin immumohistochemical staining respectively. A protein was extracted after homogenization of the frozen tissues, and a fibrosis index, and expression levels of an active-β-catenin and a target gene thereof were detected by western blot.
1) A degree of kidney tissue fibrosis was detected by sirus scarlet staining.

β-catenin signal pathway = β-catenin signal pathway in kidney tissue of UUO mice: western blot, mRNA of target genes; type: in vivo, BALB/C mice
Experimental: as §1, §2, §3, §4
as §4, with “3) Administration” for “2) Model control”, “as” for “as the”
KP-6T or KP-6 water soluble powder was diluted with sterile 0.01 Mol glacial acetic acid solution to a storage concentration of 10 mg/ml. The mice of each experimental group were raised in different cages. […] A protein was extracted after homogenization of the frozen tissues, and a fibrosis index, and expression levels of an active-β-catenin and a target gene thereof were detected by western blot.

[1] = UUO mice, 0.5 mg/kg tail vein injection for 6 days from 1st or 5th day after UUO, vs model control group (FIG. 2 and FIG. 5)
[2] = advanced UUO mouse, administration from 5th day after UUO, 0.5 mg/kg tail vein, vs model group (FIG. 7)
[3] = advanced UUO mouse, administration from 5th day after UUO, 0.5 mg/kg tail vein, vs model group (FIG. 7), 0.5 mg/kg
[4] = UUO mice, 0.5 mg/kg tail vein injection for 6 days from 1st or 5th day after UUO, vs model control group (FIG. 3 and FIG. 6)

## LQDAYGGWANR (Synthesized by Nanjing Genscript Biotechnology Co. Ltd.) [KP-6T]
UUO mice; UUO mice, 0.5 mg/kg tail vein injection for 6 consecutive days from 1st or 5th day after UUO, vs model control group (FIG. 1 and FIG. 4)
  collagen deposition in renal interstitium (sirus scarlet staining): significantly lower
UUO mice; [1]
  level of fibronectin in kidneys: significantly reduced
  level of smooth muscle actin α (α-SMA) in kidneys: significantly reduced
UUO mice; administered the 5th day after UUO
  collagen deposition in the renal interstitium: significantly inhibit
UUO mice; [2]
  deposition of extracellular matrix in renal interstitium: significantly reduced
  protein Klotho expressed by healthy kidney tubular epithelial cells: recovered
UUO mice; [3]
  level of fibronectin in kidneys: significantly reduced; also recorded: significantly inhibit
  level of smooth muscle actin α (α-SMA) in kidneys: significantly reduced; also recorded: significantly inhibit
β-catenin signal pathway; [4]
  expression level of downstream target gene of β-catenin (PAI-1, Snail-1, MMP7 mRNA) in kidneys: significantly reduced
  expression level of β-catenin protein in kidneys: significantly reduced
β-catenin signal pathway; [2]
  Wnt signal pathway (active-β-catenin): inhibited
